Laboratory results: ChEMBL document CHEMBL5696441 (Nat Chem Biol, 2011)

Tests used:
[1] = target: Dual specificity tyrosine-phosphorylation-regulated kinase 3 (Homo sapiens) (UniProt O43781); assay: Inhibition of human DYRK3 assessed as residual activity at 1 uM using RBER-IRStide as substrate in presence of 33P-ATP by ProQinase assay relative to control
Homo sapiens = species: Homo sapiens; assay: Inhibition of human CDK1/CycA2 assessed as residual activity at 1 uM using RBER-CHKtide as substrate in presence of 33P-ATP by ProQinase assay relative to control
[2] = target: Uncharacterized serine/threonine-protein kinase SBK3 (Homo sapiens) (UniProt P0C264); assay: Inhibition of SgK110 (unknown origin) assessed as remaining activity at 1 uM by Kinome scan method relative to control
Sequence of Uncharacterized serine/threonine-protein kinase SBK3 (Homo sapiens) (P0C264 whole entry): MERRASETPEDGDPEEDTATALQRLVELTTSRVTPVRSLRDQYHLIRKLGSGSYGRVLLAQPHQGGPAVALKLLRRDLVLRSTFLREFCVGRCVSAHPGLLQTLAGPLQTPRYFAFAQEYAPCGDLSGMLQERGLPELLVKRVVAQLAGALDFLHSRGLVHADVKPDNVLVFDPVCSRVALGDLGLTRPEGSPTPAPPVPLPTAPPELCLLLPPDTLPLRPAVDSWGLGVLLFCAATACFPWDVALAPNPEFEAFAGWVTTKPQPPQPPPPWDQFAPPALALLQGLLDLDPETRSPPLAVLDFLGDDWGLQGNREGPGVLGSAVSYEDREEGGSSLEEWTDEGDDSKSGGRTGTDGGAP

[3] = target: Aurora kinase B (Homo sapiens) (UniProt Q96GD4); assay: Inhibition of human AuroraB assessed as residual activity at 1 uM using bio-4xCHKT as substrate in presence of 33P-ATP by ProQinase assay relative to control
Sequence of Aurora kinase B (Homo sapiens) (Q96GD4 whole entry): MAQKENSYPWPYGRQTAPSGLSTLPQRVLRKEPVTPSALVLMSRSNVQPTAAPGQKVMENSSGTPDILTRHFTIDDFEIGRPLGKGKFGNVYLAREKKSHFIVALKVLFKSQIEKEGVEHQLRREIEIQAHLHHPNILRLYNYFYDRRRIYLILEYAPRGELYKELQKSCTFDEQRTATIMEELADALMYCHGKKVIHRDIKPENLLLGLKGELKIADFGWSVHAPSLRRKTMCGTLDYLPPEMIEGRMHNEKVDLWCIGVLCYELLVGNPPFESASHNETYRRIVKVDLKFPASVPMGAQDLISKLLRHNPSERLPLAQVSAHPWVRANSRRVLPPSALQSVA

[4] = target: Tyrosine-protein kinase Srms (Homo sapiens) (UniProt Q9H3Y6); assay: Inhibition of SRMS (unknown origin) assessed as remaining activity at 1 uM by Kinome scan method relative to control
Sequence of Tyrosine-protein kinase Srms (Homo sapiens) (Q9H3Y6 whole entry): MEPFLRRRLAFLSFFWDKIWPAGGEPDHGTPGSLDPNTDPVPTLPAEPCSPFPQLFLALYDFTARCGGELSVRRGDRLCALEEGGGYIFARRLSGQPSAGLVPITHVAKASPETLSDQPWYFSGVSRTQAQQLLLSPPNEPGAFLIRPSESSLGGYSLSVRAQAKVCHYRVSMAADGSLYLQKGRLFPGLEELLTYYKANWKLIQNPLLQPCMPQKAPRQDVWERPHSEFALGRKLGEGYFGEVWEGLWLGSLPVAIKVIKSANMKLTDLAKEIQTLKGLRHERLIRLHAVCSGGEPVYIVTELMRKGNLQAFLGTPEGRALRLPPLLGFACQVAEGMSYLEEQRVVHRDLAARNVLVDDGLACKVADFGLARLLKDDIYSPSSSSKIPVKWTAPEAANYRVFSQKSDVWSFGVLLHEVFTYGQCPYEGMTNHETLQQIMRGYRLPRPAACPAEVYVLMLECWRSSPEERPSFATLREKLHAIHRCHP

[5] = target: Wee1-like protein kinase (Homo sapiens) (UniProt P30291); assay: Inhibition of human WEE1 assessed as residual activity at 1 uM using poly(Ala,Glu,Lys,Tyr)6:2:5:1 as substrate in presence of 33P-ATP by ProQinase assay relative to control
[6] = target: Serine/threonine-protein kinase PAK 4 (Homo sapiens) (UniProt O96013); assay: Inhibition of human PAK4 assessed as residual activity at 1 uM using bio-4xCHKT as substrate in presence of 33P-ATP by ProQinase assay relative to control
Sequence of Serine/threonine-protein kinase PAK 4 (Homo sapiens) (O96013 whole entry, looked up, canonical isoform): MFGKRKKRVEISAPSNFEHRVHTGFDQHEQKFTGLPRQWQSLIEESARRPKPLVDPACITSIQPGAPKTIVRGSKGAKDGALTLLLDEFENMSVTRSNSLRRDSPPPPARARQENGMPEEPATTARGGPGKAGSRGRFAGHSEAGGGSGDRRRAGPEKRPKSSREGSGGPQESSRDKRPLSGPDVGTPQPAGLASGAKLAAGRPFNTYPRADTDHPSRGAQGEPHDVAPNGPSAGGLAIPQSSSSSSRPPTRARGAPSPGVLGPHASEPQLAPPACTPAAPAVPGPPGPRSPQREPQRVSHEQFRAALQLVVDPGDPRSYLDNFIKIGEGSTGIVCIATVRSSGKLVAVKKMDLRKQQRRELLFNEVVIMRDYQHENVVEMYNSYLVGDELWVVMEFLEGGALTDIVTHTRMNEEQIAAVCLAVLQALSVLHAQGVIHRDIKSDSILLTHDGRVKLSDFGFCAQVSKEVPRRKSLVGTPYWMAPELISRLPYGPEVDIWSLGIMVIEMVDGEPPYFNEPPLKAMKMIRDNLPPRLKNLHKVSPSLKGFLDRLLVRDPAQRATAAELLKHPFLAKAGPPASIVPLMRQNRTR

[7] = target: Phosphorylase b kinase gamma catalytic chain, skeletal muscle/heart isoform (Homo sapiens) (UniProt Q16816); assay: Inhibition of human PHKG1 assessed as residual activity at 1 uM using 3xChocktide-PKC as substrate in presence of 33P-ATP by ProQinase assay relative to control
[8] = tested on: Hepatocyte growth factor receptor (Homo sapiens), P08581 [Y1235D]; assay: Inhibition of MET Y1235D mutant (unknown origin) assessed as remaining activity at 1 uM by Kinome scan method relative to control
[9] = target: G protein-coupled receptor kinase 6 (Homo sapiens) (UniProt P43250); assay: Inhibition of human GRK6 assessed as residual activity at 1 uM using casein as substrate in presence of 33P-ATP by ProQinase assay relative to control
[10] = target: Ribosomal protein S6 kinase alpha-4 (Homo sapiens) (UniProt O75676); assay: Inhibition of human RPS6KA4 assessed as residual activity at 1 uM using RBER-CHKtide as substrate in presence of 33P-ATP by ProQinase assay relative to control
[11] = target: T1, Serine/threonine-protein kinase 17A (Homo sapiens) (UniProt Q9UEE5); assay: Inhibition of human STK17A assessed as residual activity at 1 uM using RB-CTF as substrate in presence of 33P-ATP by ProQinase assay relative to control
T1 sequence (whole entry): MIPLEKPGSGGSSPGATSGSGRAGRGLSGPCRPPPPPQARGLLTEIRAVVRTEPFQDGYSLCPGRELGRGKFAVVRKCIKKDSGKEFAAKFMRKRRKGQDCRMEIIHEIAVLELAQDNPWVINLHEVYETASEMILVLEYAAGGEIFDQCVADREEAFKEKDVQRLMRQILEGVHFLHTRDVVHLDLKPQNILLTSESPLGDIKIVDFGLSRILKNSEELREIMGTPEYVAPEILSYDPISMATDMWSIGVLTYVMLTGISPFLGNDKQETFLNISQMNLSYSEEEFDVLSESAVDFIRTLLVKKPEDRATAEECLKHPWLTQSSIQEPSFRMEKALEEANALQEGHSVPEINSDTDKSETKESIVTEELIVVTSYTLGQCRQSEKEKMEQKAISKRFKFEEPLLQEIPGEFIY

[12] = target: Cyclin-dependent kinase 7 (Homo sapiens) (UniProt P50613); assay: Inhibition of CDK7 (unknown origin) assessed as remaining activity at 1 uM by Kinome scan method relative to control
Sequence of Cyclin-dependent kinase 7 (Homo sapiens) (P50613 whole entry): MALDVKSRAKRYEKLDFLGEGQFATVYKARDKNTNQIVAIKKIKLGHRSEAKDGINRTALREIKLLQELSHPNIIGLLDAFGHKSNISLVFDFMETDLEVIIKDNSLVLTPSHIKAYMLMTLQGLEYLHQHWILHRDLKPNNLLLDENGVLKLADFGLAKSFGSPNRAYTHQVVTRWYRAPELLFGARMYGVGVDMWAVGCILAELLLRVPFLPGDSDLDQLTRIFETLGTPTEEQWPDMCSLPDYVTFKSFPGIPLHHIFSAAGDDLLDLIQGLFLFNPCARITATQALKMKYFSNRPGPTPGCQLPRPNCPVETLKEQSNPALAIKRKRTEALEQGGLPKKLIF

[13] = target: Dual specificity mitogen-activated protein kinase kinase 1 (Homo sapiens) (UniProt Q02750); assay: Inhibition of human MEK1 assessed as residual activity at 1 uM using ERK2-KR as substrate in presence of 33P-ATP by ProQinase assay relative to control
Sequence of Dual specificity mitogen-activated protein kinase kinase 1 (Homo sapiens) (Q02750 whole entry): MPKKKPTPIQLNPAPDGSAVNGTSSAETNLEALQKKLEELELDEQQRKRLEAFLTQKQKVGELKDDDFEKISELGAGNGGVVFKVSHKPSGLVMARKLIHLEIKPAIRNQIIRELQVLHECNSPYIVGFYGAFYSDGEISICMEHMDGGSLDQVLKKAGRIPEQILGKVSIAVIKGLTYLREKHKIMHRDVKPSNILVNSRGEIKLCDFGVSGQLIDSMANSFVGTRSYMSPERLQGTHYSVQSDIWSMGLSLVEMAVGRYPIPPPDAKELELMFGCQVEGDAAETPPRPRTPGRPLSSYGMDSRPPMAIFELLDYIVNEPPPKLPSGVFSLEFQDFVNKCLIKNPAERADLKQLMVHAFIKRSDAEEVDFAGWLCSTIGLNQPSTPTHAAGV

[14] = target: Serine/threonine-protein kinase PAK 4 (Homo sapiens) (UniProt O96013); assay: Inhibition of PAK4 (unknown origin) assessed as remaining activity at 1 uM by Kinome scan method relative to control
[15] = target: Tyrosine-protein kinase receptor TYRO3 (Homo sapiens) (UniProt Q06418); assay: Inhibition of TYRO3 (unknown origin) assessed as remaining activity at 1 uM by Kinome scan method relative to control
Sequence of Tyrosine-protein kinase receptor TYRO3 (Homo sapiens) (Q06418 whole entry): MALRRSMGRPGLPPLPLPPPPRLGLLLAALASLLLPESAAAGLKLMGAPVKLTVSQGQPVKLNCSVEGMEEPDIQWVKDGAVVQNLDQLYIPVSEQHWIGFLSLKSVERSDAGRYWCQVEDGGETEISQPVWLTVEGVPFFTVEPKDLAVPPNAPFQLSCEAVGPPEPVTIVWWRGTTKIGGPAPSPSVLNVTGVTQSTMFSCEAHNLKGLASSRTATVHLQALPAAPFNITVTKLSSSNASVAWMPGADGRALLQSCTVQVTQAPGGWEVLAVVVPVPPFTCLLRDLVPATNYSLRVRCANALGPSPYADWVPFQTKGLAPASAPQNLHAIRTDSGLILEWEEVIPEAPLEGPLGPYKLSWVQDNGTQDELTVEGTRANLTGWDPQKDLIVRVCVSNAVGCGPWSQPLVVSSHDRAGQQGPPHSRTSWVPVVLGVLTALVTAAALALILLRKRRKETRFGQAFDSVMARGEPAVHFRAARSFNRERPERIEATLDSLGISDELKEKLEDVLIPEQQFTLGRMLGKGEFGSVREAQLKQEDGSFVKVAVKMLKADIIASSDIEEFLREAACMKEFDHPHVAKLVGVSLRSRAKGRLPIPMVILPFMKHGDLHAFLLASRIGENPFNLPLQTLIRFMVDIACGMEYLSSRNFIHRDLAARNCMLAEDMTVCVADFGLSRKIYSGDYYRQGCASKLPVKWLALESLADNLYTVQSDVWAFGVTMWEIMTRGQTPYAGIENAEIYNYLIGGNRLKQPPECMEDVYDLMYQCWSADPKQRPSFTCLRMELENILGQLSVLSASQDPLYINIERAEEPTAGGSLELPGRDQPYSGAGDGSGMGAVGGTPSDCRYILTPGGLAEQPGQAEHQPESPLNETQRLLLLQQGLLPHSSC

[16] = target: Dual specificity protein kinase CLK4 (Homo sapiens) (UniProt Q9HAZ1); assay: Inhibition of human CLK4 assessed as residual activity at 1 uM using MBP as substrate in presence of 33P-ATP by ProQinase assay relative to control
[17] = target: Cyclin-dependent kinase 19 (Homo sapiens) (UniProt Q9BWU1); assay: Inhibition of CDK11 (unknown origin) assessed as remaining activity at 1 uM by Kinome scan method relative to control
[18] = target: Dual specificity protein kinase CLK2 (Homo sapiens) (UniProt P49760); assay: Inhibition of human CLK2 assessed as residual activity at 1 uM using RBER-GSK3 as substrate in presence of 33P-ATP by ProQinase assay relative to control
Sequence of Dual specificity protein kinase CLK2 (Homo sapiens) (P49760 whole entry, looked up): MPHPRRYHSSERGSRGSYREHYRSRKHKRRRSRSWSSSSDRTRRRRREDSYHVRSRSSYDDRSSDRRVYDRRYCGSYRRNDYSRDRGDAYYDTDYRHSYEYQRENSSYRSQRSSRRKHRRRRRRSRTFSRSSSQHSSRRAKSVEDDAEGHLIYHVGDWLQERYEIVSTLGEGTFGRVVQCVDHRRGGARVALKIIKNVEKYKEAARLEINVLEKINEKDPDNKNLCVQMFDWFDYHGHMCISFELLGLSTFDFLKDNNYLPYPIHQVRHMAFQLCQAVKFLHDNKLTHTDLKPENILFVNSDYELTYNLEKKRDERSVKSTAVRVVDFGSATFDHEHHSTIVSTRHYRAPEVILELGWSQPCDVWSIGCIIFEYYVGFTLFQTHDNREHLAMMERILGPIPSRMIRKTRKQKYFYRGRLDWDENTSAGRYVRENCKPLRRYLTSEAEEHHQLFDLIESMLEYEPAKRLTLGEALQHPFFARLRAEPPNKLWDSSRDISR

[19] = target: Receptor tyrosine-protein kinase erbB-4 (Homo sapiens) (UniProt Q15303); assay: Inhibition of ERBB4 (unknown origin) assessed as remaining activity at 1 uM by Kinome scan method relative to control
[20] = target: Serine/threonine-protein kinase PAK 1 (Homo sapiens) (UniProt Q13153); assay: Inhibition of PAK1 (unknown origin) assessed as remaining activity at 1 uM by Kinome scan method relative to control
[21] = target: Testis-specific serine/threonine-protein kinase 2 (Homo sapiens) (UniProt Q96PF2); assay: Inhibition of human TSK2 assessed as residual activity at 1 uM using RBER-CHKtide as substrate in presence of 33P-ATP by ProQinase assay relative to control
Sequence of Testis-specific serine/threonine-protein kinase 2 (Homo sapiens) (Q96PF2 whole entry): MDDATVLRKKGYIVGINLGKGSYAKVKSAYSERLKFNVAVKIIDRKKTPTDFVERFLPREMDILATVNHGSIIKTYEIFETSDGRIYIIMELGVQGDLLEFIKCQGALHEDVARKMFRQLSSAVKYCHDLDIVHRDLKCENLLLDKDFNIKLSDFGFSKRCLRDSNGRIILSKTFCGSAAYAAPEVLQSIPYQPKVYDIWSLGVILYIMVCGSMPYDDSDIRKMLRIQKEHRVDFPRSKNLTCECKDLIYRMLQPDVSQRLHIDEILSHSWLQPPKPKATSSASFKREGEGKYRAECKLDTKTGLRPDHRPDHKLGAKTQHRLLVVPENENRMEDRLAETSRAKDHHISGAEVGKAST

[22] = tested on: Receptor-type tyrosine-protein kinase FLT3 (Homo sapiens), P36888 [K663Q]; assay: Inhibition of FLT3 K663Q mutant (unknown origin) assessed as remaining activity at 1 uM by Kinome scan method relative to control
[23] = Anti-inflammatory activity against human derived medium respond PBMC cells assessed as inhibition in stimulated IL-8 cytokine release incubated for 2 hrs in the presence of LPS/SEB/aCD28 by Luminex based sandwich immunoassay; assay type: functional, cell-based
[24] = target: Protein kinase C theta type (Homo sapiens) (UniProt Q04759); assay: Inhibition of PRKCQ (unknown origin) assessed as remaining activity at 1 uM by Kinome scan method relative to control
Sequence of Protein kinase C theta type (Homo sapiens) (Q04759 whole entry, looked up): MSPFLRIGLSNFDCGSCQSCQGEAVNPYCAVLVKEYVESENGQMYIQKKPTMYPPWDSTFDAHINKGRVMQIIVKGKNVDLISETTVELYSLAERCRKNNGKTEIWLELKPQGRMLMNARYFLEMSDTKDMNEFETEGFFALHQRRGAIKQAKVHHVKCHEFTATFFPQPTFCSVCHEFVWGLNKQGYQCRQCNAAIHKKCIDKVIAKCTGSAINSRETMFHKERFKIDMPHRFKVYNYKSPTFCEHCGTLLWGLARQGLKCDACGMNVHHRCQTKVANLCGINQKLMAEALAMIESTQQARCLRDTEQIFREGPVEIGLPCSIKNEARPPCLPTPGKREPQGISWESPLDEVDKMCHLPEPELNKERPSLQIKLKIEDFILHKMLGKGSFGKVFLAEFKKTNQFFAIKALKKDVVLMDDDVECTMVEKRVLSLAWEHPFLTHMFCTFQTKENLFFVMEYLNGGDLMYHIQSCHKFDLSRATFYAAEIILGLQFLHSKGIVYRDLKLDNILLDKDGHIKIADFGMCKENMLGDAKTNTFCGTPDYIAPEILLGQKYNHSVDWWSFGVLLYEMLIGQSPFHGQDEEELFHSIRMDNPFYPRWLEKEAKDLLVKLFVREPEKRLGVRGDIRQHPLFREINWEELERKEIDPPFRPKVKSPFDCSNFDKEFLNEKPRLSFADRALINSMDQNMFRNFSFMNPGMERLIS

With `O=C1c2ccc(Nc3ccc(F)cc3F)cc2CCc2ccc(OC[C@H](O)CO)cc21` [Skepinone-L] as the compound, how does the Activity [1] read?
Its Activity is 98%.

What about the Activity (Homo sapiens) of the same compound?
The Activity was 98%.

What about the Activity [2] of the same compound?
The Activity was 90%.

What about the Activity [3] of the same compound?
Its Activity is 96%.

And the Activity [4]?
The Activity was 90%.

What about the Activity [5] of the same compound?
Its Activity is 88%.

And the Activity [6]?
Its Activity is 88%.

And the Activity [7]?
Its Activity is 93%.

And the Activity [8]?
Its Activity is 97%.

And the Activity [9]?
Its Activity is 82%.

What about the Activity [10] of the same compound?
The Activity was 107%.

What about the Activity [11] of the same compound?
The Activity was 77%.

And the Activity [12]?
The Activity was 100%.

And the Activity [13]?
Its Activity is 79%.

What about the Activity [14] of the same compound?
The Activity was 100%.

What about the Activity [15] of the same compound?
Its Activity is 100%.

And the Activity [16]?
The Activity was 100%.

What about the Activity [17] of the same compound?
The Activity was 100%.

What about the Activity [18] of the same compound?
The Activity was 89%.

And the Activity [19]?
The Activity was 97%.

And the Activity [20]?
The Activity was 100%.

And the Activity [21]?
The Activity was 82%.

And the Activity [22]?
The Activity was 98%.

And the IC50 [23]?
Its IC50 is 0.06 µM.

What about the Activity [24] of the same compound?
The Activity was 83%.
